Values quoted from earlier work, collected in PMC10151178 (Brain, 2023).

Tested on: IIH patients
From the text: The minimal clinically important change in ICP in those with IIH has yet to be determined.[38] […] In this trial ...

CC(=O)Nc1nnc(S(N)(=O)=O)s1 [acetazolamide]
Magnitude of treatment effect on ICP between trial arms (acetazolamide and diet): 5.9 cmCSF
Patients who withdrew due to adverse effects (over a 3-month period, previous randomized controlled trial): 48%
